Measured values from patent US8772307B2, “Substituted spiro compounds and their use for producing pain-relief medicaments” (Gruenenthal GmbH, priority 2005, dated 2014).

Experiments:
[1] = molecular target: T1, rat-species vanilloid receptor 1 (VR1/TRPV1) (Rattus norvegicus, UniProt O35433); assay: Functional testing on vanilloid receptor 1 (VR1/TRPV1): FLIPR Ca2+ inflow assay in rat dorsal root ganglia cells (% activation / % inhibition vs capsaicin); format: cell-based; details: for inhibition at 10 µM: inhibition compared to 10 μM CP (capsaicin); for activation at 10 µM: stimulation compared to 10 μM CP (capsaicin)
T1 construct: endogenous in cells; host or cells: primary cells dissociated from rat dorsal root ganglia (DRG)
Procedure: Preference may also be given to substituted spiro compounds according to the invention of general formula I which in a FLIPR assay in a concentration of 10 μM display inhibition of the Ca^2+ ion inflow in dorsal root ganglia of rats of at least 30%, preferably of at least 40%, particularly preferably of at least 50%, most particularly preferably of at least 70%, even more preferably of at least 90%, compared to the maximum achievable inhibition of the Ca^2+ ion inflow with capsaicin in a concentration of 10 μM.
In the FLIPR assay, the Ca^2+ inflow is quantified using a Ca^2+-sensitive dye (type Fluo-4, Molecular Probes Europe BV, Leiden, Netherlands) in a fluorescent imaging plate reader (FLIPR, Molecular Devices, Sunnyvale, USA), as described hereinafter.
I. Functional Testing Carried Out on the Vanilloid Receptor 1 (VR1/TRPV1 Receptor)
(§1) The agonistic or antagonistic effect of the substances to be tested can be determined on the rat-species vanilloid receptor 1 (VR1/TRPV1) using the following assay. According to this assay, the Ca^2+ inflow is quantified through the receptor channel using a Ca^2+-sensitive dye (type Fluo-4, Molecular Probes Europe BV, Leiden, Netherlands) in a fluorescent imaging plate reader (FLIPR, Molecular Devices, Sunnyvale, USA).
Complete medium: 50 mL HAMS F12 nutrient mixture (Gibco Invitrogen GmbH, Karlsruhe, Germany) with
10% by volume of FCS (foetal calf serum, Gibco Invitrogen GmbH, Karlsruhe, Germany, […]);
2 mM L-glutamine (Sigma, Munich, Germany);
1% by weight of AA solution (antibiotic/antimyotic solution, PAA, Pasching, Austria)
and 25 ng/ml NGF medium (2.5 S, Gibco Invitrogen GmbH, Karlsruhe, Germany)
Cell culture plate: Poly-D-lysine-coated, black 96 well plates having a clear base (96 well black/clear plate, BD Biosciences, Heidelberg, Germany) were additionally coated with laminin (Gibco Invitrogen GmbH, Karlsruhe, Germany), the laminin being diluted with PBS (Ca—Mg-free PBS, Gibco Invitrogen GmbH, Karlsruhe, Germany) to a concentration of 100 μg/mL. Aliquots having a laminin concentration of 100 μg/mL were removed and stored at −20° C. The aliquots were diluted with PBS in a ratio of 1:10 to 10 μg/mL laminin and in each case 50 μL of the solution were pipetted into a recess in the cell culture plate. The cell culture plates were incubated for at least two hours at 37° C., the excess solution was removed by suction-filtration and the recesses were each washed twice with PBS. The coated cell culture plates were stored with excess PBS which was not removed until just before the feeding of the cells.
Preparation of the Cells:
The vertebral column was removed from decapitated rats and placed immediately into cold HBSS buffer (Hank's buffered saline solution, Gibco Invitrogen GmbH, Karlsruhe, Germany), i.e. buffer located in an ice bath, mixed with 1% by volume (percent by volume) of an AA solution (antibiotic/antimyotic solution, PAA, Pasching, Austria). The vertebral column was cut longitudinally and removed together with fasciae from the vertebral canal. Subsequently, the dorsal root ganglia (DRG) were removed and again stored in cold HBSS buffer mixed with 1% by volume of an AA solution. The DRG, from which all blood remnants and spinal nerves had been removed, were transferred in each case to 500 μL of cold type 2 collagenase (PAA, Pasching, Austria) and incubated for 35 minutes at 37° C. After the addition of 2.5% by volume of trypsin (PAA, Pasching, Austria), incubation was continued for 10 minutes at 37° C. After complete incubation, the enzyme solution was carefully pipetted off and 500 μL of complete medium were added to each of the remaining DRG. The DRG were in each case suspended several times, drawn through cannulae No. 1, No. 12 and No. 16 using a syringe and transferred to a 50 mL Falcon tube which was filled up to 15 mL with complete medium. […]

vanilloid receptor (VR1) = molecular target: T2, vanilloid receptor (VR1) (Homo sapiens, UniProt Q8NER1); assay: Functional testing on vanilloid receptor (VR1): FLIPR Ca2+ inflow assay in CHO K1 cells stably transfected with the VR1 gene; format: cell-based; details: for inhibition at 10 µM: CHO-K1, inhibition compared to 10 μM CP (capsaicin); for activation at 10 µM: CHO-K1, stimulation compared to 10 μM CP (capsaicin)
T2 construct: expressed in transfected cells; host or cells: CHO K1 cells (ECACC), stably transfected
From the text: II. Functional Testing Carried Out on the Vanilloid Receptor (VR1)
as §1, with “can also” for “can”, “the” for “the rat-species”, “(VR1)” for “1 (VR1/TRPV1)”, “the” for “the receptor”
Chinese hamster ovary cells (CHO K1 cells, European Collection of Cell Cultures (ECACC) United Kingdom) were stably transfected with the VR1 gene. For functional testing, these cells were plated out on poly-D-lysine-coated black 96 well plates having a clear base (BD Biosciences, Heidelberg, Germany) at a density of 25,000 cells/well. The cells were incubated overnight at 37° C. and 5% CO2 in a culture medium (Ham's F12 nutrient mixture, 10% by volume of FCS (foetal calf serum), 18 μg/ml L-proline). The next day the cells were incubated with Fluo-4 (Fluo-4 2 μM, 0.01% by volume of Pluronic F127, Molecular Probes in HBSS (Hank's buffered saline solution), Gibco Invitrogen GmbH, Karlsruhe, Germany) for 30 minutes at 37° C. Subsequently, the plates were washed 3 times with HBSS buffer and after further incubation for 15 minutes at room temperature used for Ca^2+ measurement in a FLIPR assay. The Ca^2+-dependent fluorescence was measured before and after the addition of the substances to be tested (λex wavelength=488 nm, λem=540 nm). Quantification was carried out by measuring the highest fluorescence intensity (FC, Fluorescence Counts) over time.
The FLIPR protocol consists of 2 substance additions. First the compounds to be tested (10 μM) were pipetted onto the cells and the Ca^2+ inflow was compared with the control (capsaicin 10 μM) (% activation based on the Ca^2+ signal after the addition of 10 μM capsaicin). After 5 minutes' incubation, 100 nM of capsaicin were administered and the Ca^2+ inflow was also determined.
Desensitising agonists and antagonists led to suppression of the Ca^2+ inflow. The % inhibition was calculated compared to the maximum achievable inhibition with 10 μM of capsaicin.

T2 sequence (Q8NER1 whole entry): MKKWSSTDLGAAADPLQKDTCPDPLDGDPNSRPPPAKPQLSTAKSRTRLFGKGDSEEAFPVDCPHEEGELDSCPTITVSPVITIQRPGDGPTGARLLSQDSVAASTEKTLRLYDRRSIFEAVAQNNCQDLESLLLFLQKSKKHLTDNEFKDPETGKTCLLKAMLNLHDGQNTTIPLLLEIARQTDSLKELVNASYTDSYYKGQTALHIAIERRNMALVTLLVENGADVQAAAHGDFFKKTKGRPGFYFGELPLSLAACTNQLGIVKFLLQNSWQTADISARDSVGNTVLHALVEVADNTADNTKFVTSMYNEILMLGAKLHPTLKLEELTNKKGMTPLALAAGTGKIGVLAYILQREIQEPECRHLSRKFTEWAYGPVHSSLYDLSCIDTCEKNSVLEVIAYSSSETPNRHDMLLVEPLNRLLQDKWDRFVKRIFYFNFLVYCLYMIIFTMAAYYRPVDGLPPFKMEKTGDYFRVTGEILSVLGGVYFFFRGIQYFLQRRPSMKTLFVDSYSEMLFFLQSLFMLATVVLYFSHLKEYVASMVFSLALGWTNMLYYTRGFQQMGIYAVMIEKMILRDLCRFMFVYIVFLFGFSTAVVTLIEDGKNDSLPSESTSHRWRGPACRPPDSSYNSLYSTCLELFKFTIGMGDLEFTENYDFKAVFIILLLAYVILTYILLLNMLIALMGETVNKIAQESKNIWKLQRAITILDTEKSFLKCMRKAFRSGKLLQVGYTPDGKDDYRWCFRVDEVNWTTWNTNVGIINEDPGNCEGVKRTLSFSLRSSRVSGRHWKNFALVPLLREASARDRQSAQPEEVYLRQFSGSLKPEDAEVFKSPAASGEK
T1 sequence (O35433 whole entry): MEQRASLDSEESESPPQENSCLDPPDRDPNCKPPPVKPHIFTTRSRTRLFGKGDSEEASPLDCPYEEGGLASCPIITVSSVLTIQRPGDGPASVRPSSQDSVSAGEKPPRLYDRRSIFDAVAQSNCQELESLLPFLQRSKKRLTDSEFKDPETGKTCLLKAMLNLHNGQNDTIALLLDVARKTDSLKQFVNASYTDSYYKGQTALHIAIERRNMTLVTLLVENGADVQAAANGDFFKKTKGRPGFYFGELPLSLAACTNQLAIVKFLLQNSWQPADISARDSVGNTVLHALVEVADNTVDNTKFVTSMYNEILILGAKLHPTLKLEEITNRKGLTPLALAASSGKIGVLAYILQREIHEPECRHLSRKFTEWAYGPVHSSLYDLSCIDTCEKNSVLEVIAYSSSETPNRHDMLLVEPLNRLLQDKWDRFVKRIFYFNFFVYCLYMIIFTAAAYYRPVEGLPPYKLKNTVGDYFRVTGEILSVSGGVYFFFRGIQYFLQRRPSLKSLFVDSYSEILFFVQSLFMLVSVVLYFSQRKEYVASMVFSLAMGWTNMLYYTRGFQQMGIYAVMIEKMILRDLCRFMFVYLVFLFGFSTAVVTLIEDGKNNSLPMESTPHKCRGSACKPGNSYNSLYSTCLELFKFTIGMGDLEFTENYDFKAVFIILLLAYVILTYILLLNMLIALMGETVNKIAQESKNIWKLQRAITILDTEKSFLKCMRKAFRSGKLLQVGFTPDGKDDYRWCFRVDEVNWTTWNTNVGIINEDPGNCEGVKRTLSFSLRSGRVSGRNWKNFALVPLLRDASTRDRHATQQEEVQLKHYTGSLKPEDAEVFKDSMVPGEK

inhibition at 10 µM [1]	activation at 10 µM [1]	inhibition at 10 µM (vanilloid receptor (VR1))	activation at 10 µM (vanilloid receptor (VR1))	Structure (SMILES)
47.4%	-0.43%	17.5%	0.06%	CCc1ccc(NC(=O)N2CCC3(CC2)CC(c2ccc(C(F)(F)F)cc2)=NO3)cc1 [Compound 167, 3-(4-trifluoromethylphenyl)-1-oxa-2,8-diazaspiro[4.5]dec-2-ene-8-carboxylic acid-(4-ethylphenyl)amide]
47.8%	-0.28%	-25%	5.9%	COc1cccc(C2=NOC3(CCN(C(=O)Nc4cccc(F)c4)CC3)C2)c1 [Compound 174, 3-(3-methoxyphenyl)-1-oxa-2,8-diazaspiro[4.5]dec-2-ene-8-carboxylic acid-(3-fluorophenyl)amide]
52.1%	-0.07%	-6.74%	-0.04%	COc1cccc(C2=NOC3(CCN(C(=O)Nc4cccc(Br)c4)CC3)C2)c1 [Compound 192, 3-(3-methoxyphenyl)-1-oxa-2,8-diazaspiro[4.5]dec-2-ene-8-carboxylic acid-(3-bromophenyl)amide]
43.6%	-0.17%	-2.64%	0.11%	O=C(Nc1cccc(Br)c1)N1CCC2(CC1)CC(c1ccccc1)=NO2 [Compound 193, 3-phenyl-1-oxa-2,8-diazaspiro[4.5]dec-2-ene-8-carboxylic acid-(3-bromophenyl)amide]
59.9%	-0.35%	-17.2%	0.06%	O=C(Nc1ccc(Br)cc1)N1CCC2(CC1)CC(c1ccccc1)=NO2 [Compound 197, 3-phenyl-1-oxa-2,8-diazaspiro[4.5]dec-2-ene-8-carboxylic acid-(4-bromophenyl)amide]
54.2%	-0.43%	-0.7%	8.56%	COc1ccccc1NC(=O)N1CCC2(CC1)CC(c1ccc(C(C)(C)C)cc1)=NO2 [Compound 201, 3-(4-tert-butylphenyl)-1-oxa-2,8-diazaspiro[4.5]dec-2-ene-8-carboxylic acid-(2-methoxyphenyl)amide]
39.9%	0.15%	-23.9%	0.33%	COc1cccc(NC(=O)N2CCC3(CC2)CC(c2ccccc2)=NO3)c1 [Compound 205, 3-phenyl-1-oxa-2,8-diazaspiro[4.5]dec-2-ene-8-carboxylic acid-(3-methoxyphenyl)amide]
98%	0.22%	7.12%	-0.21%	COc1cccc(C2=NOC3(CCN(C(=O)Nc4ccc(C(F)(F)F)cc4)CC3)C2)c1 [Compound 210, 3-(3-methoxyphenyl)-1-oxa-2,8-diazaspiro[4.5]dec-2-ene-8-carboxylic acid-(4-trifluoromethylphenyl)amide]
97.5%	0.33%	9.23%	-0.18%	O=C(Nc1ccc(C(F)(F)F)cc1)N1CCC2(CC1)CC(c1ccccc1)=NO2 [Compound 211, 3-phenyl-1-oxa-2,8-diazaspiro[4.5]dec-2-ene-8-carboxylic acid-(4-trifluoromethylphenyl)amide]
61.9%	-0.43%	-16.1%	-0.21%	O=C(Nc1ccc(C(F)(F)F)cc1)N1CCC2(CC1)CC(c1ccc(Cl)cc1)=NO2 [Compound 212, 3-(4-chlorophenyl)-1-oxa-2,8-diazaspiro[4.5]dec-2-ene-8-carboxylic acid-(4-trifluoromethylphenyl)amide]
72.8%	0.95%	-11.6%	-0.04%	COc1cccc(C2=NOC3(CCN(C(=O)Nc4cc(C(F)(F)F)ccc4Cl)CC3)C2)c1 [Compound 221, 3-(3-methoxyphenyl)-1-oxa-2,8-diazaspiro[4.5]dec-2-ene-8-carboxylic acid-(2-chloro-5-trifluoromethylphenyl)amide]
47.8%	-0.47%	-4.5%	0.31%	Cc1ccc(C2=NOC3(CCN(C(=O)Nc4cc(C(F)(F)F)ccc4Cl)CC3)C2)cc1 [Compound 225, 3-p-tolyl-1-oxa-2,8-diazaspiro[4.5]dec-2-ene-8-carboxylic acid-(2-chloro-5-trifluoromethylphenyl)amide]
45.1%	-0.47%	-10.3%	-0.28%	Cc1ccc(C2=NOC3(CCN(C(=O)Nc4ccc(Cl)c(C(F)(F)F)c4)CC3)C2)cc1 [Compound 236, 3-p-tolyl-1-oxa-2,8-diazaspiro[4.5]dec-2-ene-8-carboxylic acid-(4-chloro-3-trifluoromethylphenyl)amide]
89.1%	9.79%	3.09%	-0.28%	COc1cccc(C2=NOC3(CCN(C(=O)Nc4ccc(OC(F)(F)F)cc4)CC3)C2)c1 [Compound 244, 3-(3-methoxyphenyl)-1-oxa-2,8-diazaspiro[4.5]dec-2-ene-8-carboxylic acid-(4-trifluoromethoxyphenyl)amide]
99%	2.55%	11%	0.28%	O=C(Nc1ccc(OC(F)(F)F)cc1)N1CCC2(CC1)CC(c1ccccc1)=NO2 [Compound 245, 3-phenyl-1-oxa-2,8-diazaspiro[4.5]dec-2-ene-8-carboxylic acid-(4-trifluoromethoxyphenyl)amide]
